The target of one test is T1, hM2 receptor (Homo sapiens, UniProt P08172).
T1 construct: expressed in transfected cells
T1 sequence (P08172 1-466): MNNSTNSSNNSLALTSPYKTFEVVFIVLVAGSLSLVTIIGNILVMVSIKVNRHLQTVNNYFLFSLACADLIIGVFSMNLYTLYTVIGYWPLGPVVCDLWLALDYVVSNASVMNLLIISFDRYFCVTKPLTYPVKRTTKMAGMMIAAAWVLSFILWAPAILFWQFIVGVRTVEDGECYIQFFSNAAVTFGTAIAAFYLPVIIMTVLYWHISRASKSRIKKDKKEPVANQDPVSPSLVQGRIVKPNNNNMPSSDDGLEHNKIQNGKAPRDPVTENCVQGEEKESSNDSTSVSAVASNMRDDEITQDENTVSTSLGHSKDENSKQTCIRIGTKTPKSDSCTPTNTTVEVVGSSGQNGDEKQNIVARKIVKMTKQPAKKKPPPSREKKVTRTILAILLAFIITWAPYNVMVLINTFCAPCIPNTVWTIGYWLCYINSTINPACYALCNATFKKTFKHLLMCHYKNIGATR
Nature of the test: Blockade of agonist-mediated [35S]GTPγS binding. To be noted: CHO-K1 cells expressing the hM2 receptor; read-out: Ki for blockade of oxotremorine-stimulated [35S]GTPγS binding. The test is classed as biochemical. The protocol:
B. Blockade of Agonist-Mediated GTPγ[^35S] Binding
In a second functional assay, the functional potency of a test compound is determined by measuring the ability of the compound to block oxotremorine-stimulated [^35S]GTPγS binding in CHO-K^1 cells expressing the hM2 receptor. At the time of use, frozen membranes were thawed and then diluted in assay buffer with a final target tissue concentration of 5-10 μg protein per well. The membranes were briefly homogenized using a Polytron PT-2100 tissue disrupter and then added to the assay plates.
The EC90 value (effective concentration for 90% maximal response) for stimulation of [^35S]GTPγS binding by the agonist oxotremorine was determined in each experiment.
The assay plates were then incubated at 37° C. for 60 minutes. The assay plates were filtered over 1% BSA-pretreated GF/B filters using a PerkinElmer 96-well harvester. The plates were rinsed with ice-cold wash buffer for 3×3 seconds and then air or vacuum dried. Microscint-20 scintillation liquid (50 μL) was added to each well, and each plate was sealed and radioactivity counted on a topcounter (PerkinElmer). Data were analyzed by nonlinear regression analysis with the GraphPad Prism Software package (GraphPad Software, Inc., San Diego, Calif.) using the non-linear regression, one-site competition equation. […]
Background: GTPγS is a poorly hydrolysed GTP analogue; its binding reports G protein activation.

Test [1] has as its target T2, hM3 muscarinic receptor subtype (Homo sapiens, UniProt P20309).
T2 construct: expressed in transfected cells
Description: Radioligand binding assay ([3H]-NMS displacement), hM3. As to the method:
A. Membrane Preparation from Cells Expressing hM1, hM2, hM3 and hM4 Muscarinic Receptor Subtypes
CHO (Chinese hamster ovary) cell lines stably expressing cloned human hM1, hM2, hM3 and hM4 muscarinic receptor subtypes, respectively, were grown to near confluency in medium consisting of HAM's F-12 supplemented with 10% FBS (Fetal Bovine Serum) and 250 μg/mL Geneticin. The cells were grown in a 5% CO2, 37° C. incubator and lifted with 2 mm EDTA in dPBS. Cells were collected by 5 minute centrifugation at 650×g, and cell pellets were either stored frozen at −80° C. or membranes were prepared immediately. For membrane preparation, cell pellets were resuspended in lysis buffer and homogenized with a Polytron PT-2100 tissue disrupter (Kinematica AG; 20 seconds×2 bursts). Crude membranes were centrifuged at 40,000×g for 15 minutes at 4° C. The membrane pellet was then resuspended with resuspension buffer and homogenized again with the Polytron tissue disrupter. The protein concentration of the membrane suspension was determined by the method described in Lowry, O. et al., 1951, […]: 193, 265. All membranes were stored frozen in aliquots at −80° C. or used immediately. Aliquots of prepared hM5 receptor membranes were purchased directly from Perkin Elmer and stored at −80° C. until use.
B. Radioligand Binding Assay on Muscarinic Receptor Subtypes hM1, hM2, hM3, hM4 and hM5
Radioligand binding assays were performed in 96-well microtiter plates in a total assay volume of 100 μL. CHO cell membranes stably expressing either the hM1, hM2, hM3, hM4 or hM5 muscarinic subtype were diluted in assay buffer to the following specific target protein concentrations (μg/well): 10 μg for hM1, 10-15 μg for hM2, 10-20 μg for hM3, 10-20 μg for hM4, and 10-12 μg for hM5. The membranes were briefly homogenized using a Polytron tissue disruptor (10 seconds) prior to assay plate addition. Saturation binding studies for determining KD values of the radioligand were performed using L-[N-methyl-3H]scopolamine methyl chloride ([^3H]-NMS) (TRK666, 84.0 Ci/mmol, Amersham Pharmacia Biotech, Buckinghamshire, England) at concentrations ranging from 0.001 nM to 20 nM. Displacement assays for determination of Ki values of test compounds were performed with [^3H]-NMS at 1 nM and eleven different test compound concentrations. The test compounds were initially dissolved to a concentration of 400 μM in dilution buffer and then serially diluted 5× with dilution buffer to final concentrations ranging from […] to […]. The addition order and volumes to the assay plates were as follows: 25 μL radioligand, 25 μL diluted test compound, and 50 μL membranes. Assay plates were incubated for 60 minutes at 37° C. Binding reactions were terminated by rapid filtration over GF/B glass fiber filter plates (PerkinElmer Inc., Wellesley, Mass.) pre-treated in 1% BSA. Filter plates were rinsed three times with wash buffer (10 mm HEPES) to remove unbound radioactivity. Plates were then air dried, and 50 μL Microscint-20 liquid scintillation fluid (PerkinElmer Inc., Wellesley, Mass.) was added to each well. The plates were then counted in a PerkinElmer Topcount liquid scintillation counter (PerkinElmer Inc., Wellesley, Mass.). Binding data were analyzed by nonlinear regression analysis with the GraphPad Prism Software package (GraphPad Software, Inc., San Diego, Calif.) using the one-site competition model. Ki values for test compounds were calculated from observed IC50 values and the KD value of the radioligand using the Cheng-Prusoff equation (Cheng Y; Prusoff W H. (1973) Biochemical Pharmacology, 22(23):3099-108). Ki values were converted to pKi values to determine the geometric mean and 95% confidence intervals. These summary statistics were then converted back to Ki values for data reporting.

Bounds are passed on as bounds.

T2 sequence (P20309 whole entry): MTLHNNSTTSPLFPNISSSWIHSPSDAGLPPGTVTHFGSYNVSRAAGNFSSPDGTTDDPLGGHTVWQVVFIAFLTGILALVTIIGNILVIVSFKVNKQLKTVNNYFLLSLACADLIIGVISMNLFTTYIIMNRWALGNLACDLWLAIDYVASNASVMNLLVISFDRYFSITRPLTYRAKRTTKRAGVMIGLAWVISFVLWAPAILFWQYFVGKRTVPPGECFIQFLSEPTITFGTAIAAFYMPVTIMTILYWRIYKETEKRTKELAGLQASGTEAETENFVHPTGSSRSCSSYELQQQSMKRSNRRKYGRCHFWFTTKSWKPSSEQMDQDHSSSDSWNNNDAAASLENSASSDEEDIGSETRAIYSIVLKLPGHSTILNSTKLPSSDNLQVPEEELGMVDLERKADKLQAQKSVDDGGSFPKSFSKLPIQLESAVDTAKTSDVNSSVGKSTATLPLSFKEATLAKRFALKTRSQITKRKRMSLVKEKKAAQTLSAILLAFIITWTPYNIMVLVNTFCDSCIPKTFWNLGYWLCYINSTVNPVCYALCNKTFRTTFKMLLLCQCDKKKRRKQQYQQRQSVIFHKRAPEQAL

`CNCCCCCCCCN1CC[C@@H](C(C(N)=O)(c2ccccc2)c2ccccc2)C1` [Example 1, 2-[(S)-1-(8-Methylaminooctyl)pyrrolidin-3-yl]-2,2-diphenylacetamide]: the Ki is less than 5 nM at hM2 receptor and 0.96 nM in test [1] (CHO cell membranes, [3H]-NMS 1 nM, read-out: hM3 binding affinity (Ki)). Besides, the “Δ hM3: change in binding affinity relative to compound of the invention” value in test [1] (ratio of hM3 Ki values) was “×2.6”.

As a reminder, the Ki is the dissociation constant of the complex between target and ligand, obtained from inhibition or displacement.

The values above are taken from patent US7638639B2, “Substituted pyrrolidine and related compounds” (Theravance, Inc., priority 2003, dated 2009).
